{"source": "ChEMBL document CHEMBL1201862", "about": "“PubChem BioAssay data set” (2004)", "key": {"[1]": {"target": "Voltage-dependent T-type calcium channel subunit alpha-1H (Homo sapiens, UniProt O95180)", "sequence (O95180 whole entry)": "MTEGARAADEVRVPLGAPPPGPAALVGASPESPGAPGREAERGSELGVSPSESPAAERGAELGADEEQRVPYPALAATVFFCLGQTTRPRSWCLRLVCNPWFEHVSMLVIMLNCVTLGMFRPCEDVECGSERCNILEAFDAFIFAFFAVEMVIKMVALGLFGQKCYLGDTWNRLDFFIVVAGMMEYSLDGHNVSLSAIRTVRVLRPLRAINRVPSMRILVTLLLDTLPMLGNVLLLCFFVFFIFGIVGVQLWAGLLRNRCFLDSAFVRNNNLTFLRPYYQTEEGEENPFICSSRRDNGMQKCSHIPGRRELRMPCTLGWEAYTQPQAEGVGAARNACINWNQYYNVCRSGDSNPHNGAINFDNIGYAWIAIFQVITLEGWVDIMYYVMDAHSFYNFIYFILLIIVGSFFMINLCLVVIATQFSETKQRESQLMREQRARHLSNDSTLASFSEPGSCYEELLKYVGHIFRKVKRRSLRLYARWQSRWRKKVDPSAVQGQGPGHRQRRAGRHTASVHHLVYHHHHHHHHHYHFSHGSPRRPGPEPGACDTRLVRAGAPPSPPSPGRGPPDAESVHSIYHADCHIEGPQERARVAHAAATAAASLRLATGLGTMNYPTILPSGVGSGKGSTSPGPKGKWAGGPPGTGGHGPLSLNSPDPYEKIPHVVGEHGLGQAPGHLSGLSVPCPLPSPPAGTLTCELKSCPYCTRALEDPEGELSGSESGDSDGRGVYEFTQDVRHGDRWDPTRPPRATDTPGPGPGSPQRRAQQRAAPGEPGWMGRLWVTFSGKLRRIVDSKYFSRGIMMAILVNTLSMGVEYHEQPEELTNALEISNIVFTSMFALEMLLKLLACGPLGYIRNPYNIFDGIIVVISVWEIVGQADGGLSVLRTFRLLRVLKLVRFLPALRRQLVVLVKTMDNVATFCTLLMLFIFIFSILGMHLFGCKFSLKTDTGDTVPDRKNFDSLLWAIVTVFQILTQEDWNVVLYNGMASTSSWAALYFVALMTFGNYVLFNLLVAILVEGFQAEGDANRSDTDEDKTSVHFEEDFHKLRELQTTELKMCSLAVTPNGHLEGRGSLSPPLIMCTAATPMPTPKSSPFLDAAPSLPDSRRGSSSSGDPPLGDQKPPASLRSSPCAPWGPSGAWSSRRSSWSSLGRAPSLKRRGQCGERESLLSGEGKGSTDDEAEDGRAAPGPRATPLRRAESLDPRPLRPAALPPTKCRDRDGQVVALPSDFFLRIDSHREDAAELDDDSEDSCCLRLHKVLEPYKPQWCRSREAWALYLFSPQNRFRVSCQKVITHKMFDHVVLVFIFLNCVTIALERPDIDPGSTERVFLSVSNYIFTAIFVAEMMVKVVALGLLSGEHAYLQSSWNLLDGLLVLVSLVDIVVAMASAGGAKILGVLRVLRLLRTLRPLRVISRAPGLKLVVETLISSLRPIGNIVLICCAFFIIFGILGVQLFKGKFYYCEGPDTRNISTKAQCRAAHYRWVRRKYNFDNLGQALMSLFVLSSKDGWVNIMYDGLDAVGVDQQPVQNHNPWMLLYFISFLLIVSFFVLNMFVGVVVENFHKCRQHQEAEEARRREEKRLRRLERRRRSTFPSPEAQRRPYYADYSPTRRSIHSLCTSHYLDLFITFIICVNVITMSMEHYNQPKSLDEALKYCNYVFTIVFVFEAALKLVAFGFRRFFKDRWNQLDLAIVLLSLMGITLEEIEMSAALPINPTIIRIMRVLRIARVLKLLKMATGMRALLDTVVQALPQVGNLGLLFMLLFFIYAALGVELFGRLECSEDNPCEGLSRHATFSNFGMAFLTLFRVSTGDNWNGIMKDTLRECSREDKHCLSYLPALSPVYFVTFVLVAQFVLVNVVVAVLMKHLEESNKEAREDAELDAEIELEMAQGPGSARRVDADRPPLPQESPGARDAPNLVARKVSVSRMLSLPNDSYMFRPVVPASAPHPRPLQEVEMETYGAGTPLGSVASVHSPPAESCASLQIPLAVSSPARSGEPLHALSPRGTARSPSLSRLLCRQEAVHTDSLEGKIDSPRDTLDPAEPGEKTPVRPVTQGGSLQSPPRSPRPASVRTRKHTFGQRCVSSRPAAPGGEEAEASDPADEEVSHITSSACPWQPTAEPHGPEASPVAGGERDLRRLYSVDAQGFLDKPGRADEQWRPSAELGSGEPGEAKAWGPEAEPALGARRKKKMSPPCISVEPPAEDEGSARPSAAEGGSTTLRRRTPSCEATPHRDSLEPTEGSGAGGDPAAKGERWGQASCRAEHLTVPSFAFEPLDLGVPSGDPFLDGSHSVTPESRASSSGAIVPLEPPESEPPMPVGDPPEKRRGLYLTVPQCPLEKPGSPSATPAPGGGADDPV", "assay_type": "functional"}, "[2]": {"assay": "A cytotoxicity screen of small molecule inhibitors of the PhoP region in Salmonella typhi identified in the primary screen. [Related pubchem assays: 1850, 1864, 1985 ]", "assay_type": "functional"}, "cells": {"assay": "cells", "assay_type": "functional"}, "[3]": {"target": "T1, E3 ubiquitin-protein ligase XIAP (Homo sapiens, UniProt P98170)", "T1 sequence (P98170 whole entry)": "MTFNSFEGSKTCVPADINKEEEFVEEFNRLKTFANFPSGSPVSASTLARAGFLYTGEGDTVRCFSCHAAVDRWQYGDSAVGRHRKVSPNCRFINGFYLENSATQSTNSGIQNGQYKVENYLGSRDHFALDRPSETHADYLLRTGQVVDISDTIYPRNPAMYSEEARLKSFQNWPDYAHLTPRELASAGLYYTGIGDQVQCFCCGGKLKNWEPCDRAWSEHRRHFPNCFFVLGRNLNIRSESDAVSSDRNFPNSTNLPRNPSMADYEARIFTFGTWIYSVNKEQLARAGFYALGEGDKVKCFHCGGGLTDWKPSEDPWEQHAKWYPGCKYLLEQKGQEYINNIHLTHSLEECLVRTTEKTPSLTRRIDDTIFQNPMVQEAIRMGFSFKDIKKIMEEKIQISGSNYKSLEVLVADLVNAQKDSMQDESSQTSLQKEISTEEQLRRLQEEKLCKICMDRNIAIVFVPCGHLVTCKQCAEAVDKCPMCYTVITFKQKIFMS", "assay": "Counter Screen using XIAP-Bir3 for Chemical Antagonists of Bir1/2 domains of IAP-family anti-apoptotic proteins. [Related pubchem assays (depositor defined):AID1018, AID1449, AID1514, AID1638, AID1749, AID1750, AID488957, AID488963]"}, "[4]": {"target": "T1, E3 ubiquitin-protein ligase XIAP", "assay": "small molecules displacing peptide from XIAP – biochemical, IAP family, fluorescence polarization (AID 1018)", "assay_type": "functional"}, "[5]": {"assay": "Trypanosoma cruzi growth suppression in host cells – NIH3T3 host cells, beta-gal luminescence, confirmation (AID 2044);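 further: intracellular parasites grown in NIH/3T3 mouse fibroblasts as host cells; luminescent beta-galactosidase reporter signal from transgenic T. cruzi replicating inside host cells; inhibitors lower the luminescence signal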", "assay_type": "functional, cell-based"}, "[6]": {"assay": "NIH3T3 cell viability loss – ATP luminescence, mouse fibroblasts, counter-screen, dose response (AID 2010);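 further: cells exposed to compound for about 90 hours before reading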", "assay_type": "functional, cell-based"}, "[7]": {"assay": "blockers of HIV-1 envelope-mediated cell-cell fusion – cherry-pick, dose response (AID 652057)", "assay_type": "functional, cell-based"}, "[8]": {"assay": "blockers of HIV-1 ZM109 envelope-driven cell-cell fusion – HeLa effector, CEM target cells, luciferase, cherry-pick, dose response (AID 652058)", "assay_type": "functional, cell-based"}, "[9]": {"assay": "off-target signal loss in HeLa-CEM21 co-culture – HeLa F-luc CTL cells, cherry-picked, counter-screen for HIV-1 Env fusion inhibitor project, dose response (AID 652040);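 further: potency for signal decrease marking cytotoxic or nonspecific inhibition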", "assay_type": "functional, cell-based"}, "[10]": {"assay": "HIV-1 AD8 envelope cell-cell fusion blockers – cherry-pick, dose response (AID 652062);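 further: potency is for inhibitors of fusion seen as a drop in luminescence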", "assay_type": "functional, cell-based"}, "Cytochrome P450 2C19": {"target": "Cytochrome P450 2C19 (Homo sapiens, UniProt P33261)", "sequence (P33261 whole entry)": "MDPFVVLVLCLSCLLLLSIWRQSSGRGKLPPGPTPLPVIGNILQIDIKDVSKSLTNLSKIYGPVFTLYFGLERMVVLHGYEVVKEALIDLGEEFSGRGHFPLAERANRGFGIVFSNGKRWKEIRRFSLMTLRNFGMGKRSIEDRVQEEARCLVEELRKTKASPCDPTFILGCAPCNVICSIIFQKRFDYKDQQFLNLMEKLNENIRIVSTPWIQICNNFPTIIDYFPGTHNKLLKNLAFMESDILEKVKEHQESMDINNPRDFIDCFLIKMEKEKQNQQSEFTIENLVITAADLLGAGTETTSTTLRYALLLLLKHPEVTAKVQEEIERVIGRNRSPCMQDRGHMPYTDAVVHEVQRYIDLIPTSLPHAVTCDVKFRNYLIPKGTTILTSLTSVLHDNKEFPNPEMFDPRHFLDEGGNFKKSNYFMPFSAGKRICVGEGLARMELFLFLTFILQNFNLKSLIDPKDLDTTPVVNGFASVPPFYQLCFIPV", "assay": "Cytochrome panel assay with activity outcomes. Panel member name: p450-cyp2c19 Compounds with AC50 equal or less than 10 uM are considered active", "assay_type": "functional", "settings": "read-out: AC50"}, "Cytochrome P450 2D6": {"target": "Cytochrome P450 2D6 (Homo sapiens, UniProt P10635)", "sequence (P10635 whole entry)": "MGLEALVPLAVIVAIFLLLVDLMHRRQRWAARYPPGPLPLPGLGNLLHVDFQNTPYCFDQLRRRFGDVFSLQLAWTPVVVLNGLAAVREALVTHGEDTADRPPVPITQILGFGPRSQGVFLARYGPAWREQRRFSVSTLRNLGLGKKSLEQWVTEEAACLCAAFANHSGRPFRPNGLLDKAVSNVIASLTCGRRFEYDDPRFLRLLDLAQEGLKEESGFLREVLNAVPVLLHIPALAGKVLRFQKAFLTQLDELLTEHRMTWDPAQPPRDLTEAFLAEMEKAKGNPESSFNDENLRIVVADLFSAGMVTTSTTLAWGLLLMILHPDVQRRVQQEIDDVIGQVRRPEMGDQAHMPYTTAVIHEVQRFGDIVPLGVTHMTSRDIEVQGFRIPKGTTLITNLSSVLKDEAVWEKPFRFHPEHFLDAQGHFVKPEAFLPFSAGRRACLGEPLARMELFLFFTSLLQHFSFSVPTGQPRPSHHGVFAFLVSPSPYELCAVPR"}, "Cytochrome P450 3A4": {"target": "Cytochrome P450 3A4 (Homo sapiens, UniProt P08684)", "sequence (P08684 whole entry)": "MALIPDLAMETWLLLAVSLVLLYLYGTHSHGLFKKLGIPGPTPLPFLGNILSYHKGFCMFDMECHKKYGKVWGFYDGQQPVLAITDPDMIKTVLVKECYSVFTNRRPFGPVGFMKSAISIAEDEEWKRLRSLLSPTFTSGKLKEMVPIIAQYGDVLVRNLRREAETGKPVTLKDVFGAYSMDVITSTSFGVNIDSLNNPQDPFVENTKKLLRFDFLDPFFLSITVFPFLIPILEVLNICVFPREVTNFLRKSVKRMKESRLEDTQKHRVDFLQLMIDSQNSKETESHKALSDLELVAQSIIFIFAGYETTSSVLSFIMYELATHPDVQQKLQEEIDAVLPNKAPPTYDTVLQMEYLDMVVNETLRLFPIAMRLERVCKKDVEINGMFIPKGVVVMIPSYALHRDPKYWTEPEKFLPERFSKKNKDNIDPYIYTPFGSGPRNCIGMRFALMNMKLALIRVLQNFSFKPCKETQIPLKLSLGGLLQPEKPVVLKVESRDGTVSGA"}, "Cytochrome P450 2C9": {"target": "Cytochrome P450 2C9 (Homo sapiens, UniProt P11712)", "sequence (P11712 whole entry)": "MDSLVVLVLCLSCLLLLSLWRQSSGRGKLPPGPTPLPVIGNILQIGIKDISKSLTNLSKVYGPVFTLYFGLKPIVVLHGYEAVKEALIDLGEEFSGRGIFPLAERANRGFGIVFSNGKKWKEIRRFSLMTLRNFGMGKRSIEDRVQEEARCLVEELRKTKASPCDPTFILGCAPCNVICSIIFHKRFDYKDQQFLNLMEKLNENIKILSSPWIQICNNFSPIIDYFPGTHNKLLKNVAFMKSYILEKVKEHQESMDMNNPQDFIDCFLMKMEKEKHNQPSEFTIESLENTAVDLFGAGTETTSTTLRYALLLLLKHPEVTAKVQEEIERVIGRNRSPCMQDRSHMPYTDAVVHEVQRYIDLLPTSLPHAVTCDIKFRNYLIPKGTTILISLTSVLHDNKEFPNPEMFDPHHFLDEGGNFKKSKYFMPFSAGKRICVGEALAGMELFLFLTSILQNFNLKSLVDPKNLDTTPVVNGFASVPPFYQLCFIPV"}, "[11]": {"target": "T2, Endoribonuclease toxin MazF (Escherichia coli K-12, UniProt P0AE70)", "T2 sequence (P0AE70 whole entry)": "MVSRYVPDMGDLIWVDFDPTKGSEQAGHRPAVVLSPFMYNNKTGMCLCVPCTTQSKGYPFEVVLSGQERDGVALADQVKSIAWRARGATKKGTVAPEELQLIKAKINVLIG", "assay": "activation of MazEF endoribonuclease cleavage – biochemical, fluorescence, single-stranded RNA substrate, uHTS hits, dose response (AID 588481)", "assay_type": "functional"}, "[12]": {"target": "T2, Endoribonuclease toxin MazF", "assay": "substrate-only fluorescence increase artefacts – biochemical, single-stranded RNase substrate, counter-screen for MazEF activator project, dose response (AID 588502)", "assay_type": "functional"}, "[13]": {"target": "T3, Carboxy-terminal domain RNA polymerase II polypeptide A small phosphatase 1 (Homo sapiens, UniProt Q9GZU7)", "T3 sequence (Q9GZU7 whole entry)": "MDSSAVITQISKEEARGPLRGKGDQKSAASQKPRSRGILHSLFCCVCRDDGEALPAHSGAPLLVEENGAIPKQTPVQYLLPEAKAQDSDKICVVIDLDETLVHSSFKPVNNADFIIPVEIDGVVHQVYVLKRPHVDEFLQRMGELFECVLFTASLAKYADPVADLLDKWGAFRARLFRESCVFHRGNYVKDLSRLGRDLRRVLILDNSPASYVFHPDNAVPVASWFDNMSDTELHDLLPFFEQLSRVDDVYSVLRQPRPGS", "assay": "CTDSP1 inhibitors, concentration-response, biochemical, absorbance readout, ultra-high-throughput screen actives (AID 540297)", "assay_type": "functional"}, "[14]": {"target": "T4, Corticotropin-releasing factor receptor 2/Corticotropin-releasing factor-binding protein (Homo sapiens, UniProt P24387+Q13324)", "T4 sequence (Q13324 whole entry)": "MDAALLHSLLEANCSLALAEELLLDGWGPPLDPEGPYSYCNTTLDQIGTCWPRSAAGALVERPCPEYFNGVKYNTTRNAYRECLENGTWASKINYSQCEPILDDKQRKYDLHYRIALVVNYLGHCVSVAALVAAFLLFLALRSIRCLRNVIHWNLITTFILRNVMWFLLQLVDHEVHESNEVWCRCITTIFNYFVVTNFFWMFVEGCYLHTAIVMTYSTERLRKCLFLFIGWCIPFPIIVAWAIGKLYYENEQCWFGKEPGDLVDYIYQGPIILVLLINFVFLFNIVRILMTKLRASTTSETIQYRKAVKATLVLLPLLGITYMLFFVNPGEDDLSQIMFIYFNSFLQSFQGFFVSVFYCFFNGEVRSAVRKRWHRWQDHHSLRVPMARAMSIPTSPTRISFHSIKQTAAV", "T4 sequence (P24387 whole entry)": "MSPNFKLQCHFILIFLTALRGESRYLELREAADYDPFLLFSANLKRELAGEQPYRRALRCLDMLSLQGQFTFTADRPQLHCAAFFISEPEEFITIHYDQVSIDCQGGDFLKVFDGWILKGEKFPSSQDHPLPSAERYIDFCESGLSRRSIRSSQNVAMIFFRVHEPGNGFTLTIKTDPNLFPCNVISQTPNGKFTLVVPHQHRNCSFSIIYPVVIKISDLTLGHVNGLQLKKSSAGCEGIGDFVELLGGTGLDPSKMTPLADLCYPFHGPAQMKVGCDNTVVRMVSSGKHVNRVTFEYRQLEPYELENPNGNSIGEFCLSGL", "assay": "activators of CRF receptor 2 with binding protein – uHTS hits, confirmation (AID 602473)", "assay_type": "functional", "settings": "read-out: EC50_Mean"}}, "note": "The source made the active and inactive calls.", "data": [{"compound": "Cc1cc(NC(=O)CSc2c(C)[nH]c3ccccc23)no1", "values": [{"measurement": "EC50", "setting": "[1]", "value": "5.22 µM (active)"}]}, {"compound": "CCSc1nc(C)cc(C)c1S(=O)(=O)c1ccccc1C", "values": [{"measurement": "EC50", "setting": "[2]", "value": "> 50 µM (active)"}]}, {"compound": "Cc1ccc(C)c(Cn2c(CO)nc3ccccc32)c1", "values": [{"measurement": "EC50", "setting": "[1]", "value": "2.68 µM (active)"}]}, {"compound": "CCCOc1ccc(N2CC(C(=O)Nc3ccccn3)CC2=O)cc1", "note": "(stereo unspecified)", "values": [{"measurement": "IC50", "setting": "cells", "value": "19.8 µM (active)"}]}, {"compound": "Cc1ccc2c(c1)NC(=O)C(CC(=O)O)O2", "note": "(stereo unspecified)", "values": [{"measurement": "IC50", "setting": "[3]", "value": "> 100 µM (inactive)"}, {"measurement": "IC50", "setting": "[4]", "value": "> 100 µM (not active)"}]}, {"compound": "CCCCCCOc1ccc(CN2CCN(CC)CC2)cc1", "values": [{"measurement": "EC50", "setting": "[2]", "value": "> 50 µM (active)"}, {"measurement": "EC50", "setting": "[5]", "value": "0.752 µM (active)"}, {"measurement": "EC50", "setting": "[6]", "value": "> 30 µM (not active)"}]}, {"compound": "COc1cccc(C(c2nnnn2CCc2ccccc2)N2CCN(c3ccccc3)CC2)c1OC", "note": "(stereo unspecified)", "values": [{"measurement": "EC50", "setting": "[1]", "value": "0.986 µM (active)"}]}, {"compound": "O=C(COc1cccc2ccccc12)NNC(=O)CSCCO", "values": [{"measurement": "IC50", "setting": "[3]", "value": "> 100 µM (inactive)"}, {"measurement": "IC50", "setting": "[4]", "value": "> 100 µM (not active)"}]}, {"compound": "Cc1cc(Cl)c(S(=O)(=O)Nc2ccc3c(c2)OCO3)cc1OCC(=O)NC1CCCCC1", "values": [{"measurement": "EC50", "setting": "[1]", "value": "2.06 µM (active)"}]}, {"compound": "CC[C@@]12C(=O)N(c3cccc(F)c3)C(=O)N1[C@H](c1ccc(Br)cc1)[C@@H]1C(=O)N(C(C)(C)C)C(=O)[C@@H]12", "values": [{"measurement": "AC50", "setting": "[7]", "value": "< 0.26 µM (active)"}, {"measurement": "AC50", "setting": "[8]", "value": "< 0.26 µM (active)"}, {"measurement": "AC50", "setting": "[9]", "value": "< 0.26 µM (active)"}, {"measurement": "AC50", "setting": "[10]", "value": "< 0.26 µM (active)"}]}, {"compound": "COc1ccc(S(=O)(=O)NCCC(=O)NC(C)c2ccccc2)cc1", "note": "(stereo unspecified)", "values": [{"measurement": "AC50", "setting": "Cytochrome P450 2C19", "value": "17.8 µM (inconclusive)"}, {"measurement": "AC50", "setting": "Cytochrome P450 2D6", "value": "14.1 µM (inconclusive)"}, {"measurement": "AC50", "setting": "Cytochrome P450 3A4", "value": "22.4 µM (inconclusive)"}, {"measurement": "AC50", "setting": "Cytochrome P450 2C9", "value": "inconclusive"}]}, {"compound": "COC(=O)c1ccccc1NC(=O)Cn1cnc2c(cnn2-c2ccccc2)c1=O", "values": [{"measurement": "EC50", "setting": "[11]", "value": "> 99 µM (inactive)"}, {"measurement": "EC50", "setting": "[12]", "value": "> 99 µM (inactive)"}]}, {"compound": "O=C(C[n+]1cc(-c2ccccc2)n2c1CCC2)c1cccs1", "values": [{"measurement": "EC50", "setting": "[2]", "value": "> 50 µM (active)"}]}, {"compound": "O=C(CCCCCCCC(=O)NNC(=O)Nc1ccccc1)NNC(=O)Nc1ccccc1", "values": [{"measurement": "IC50", "setting": "[13]", "value": "11.9 µM (active)"}]}, {"compound": "Oc1ccccc1C=NN=Cc1c(O)ccc2ccccc12", "values": [{"measurement": "EC50", "setting": "[11]", "value": "> 99 µM (inactive)"}, {"measurement": "EC50", "setting": "[12]", "value": "> 99 µM (inactive)"}, {"measurement": "EC50", "setting": "[14]", "value": "5.17 µM (active)"}]}, {"compound": "OC1=C2C(=Nc3ccccc3NC2c2cccs2)CCC1", "note": "(stereo unspecified)", "values": [{"measurement": "AC50", "setting": "[7]", "value": "2.27 µM (active)"}, {"measurement": "AC50", "setting": "[8]", "value": "1.3 µM (active)"}, {"measurement": "AC50", "setting": "[9]", "value": "2.44 µM (active)"}, {"measurement": "AC50", "setting": "[10]", "value": "3.83 µM (active)"}]}, {"compound": "Clc1cccc(/C(Cc2nc3ccccc3[nH]2)=N\\Nc2ccccc2)c1", "values": [{"measurement": "EC50", "setting": "[11]", "value": "> 99 µM (inactive)"}, {"measurement": "EC50", "setting": "[12]", "value": "> 99 µM (inactive)"}]}, {"compound": "Cn1ccs/c1=N\\C(=O)c1ccccc1F", "values": [{"measurement": "IC50", "setting": "cells", "value": "> 50 µM (active)"}]}, {"compound": "Oc1ccc(C2NCc3ccccc3-n3cccc32)cc1Cl", "note": "(stereo unspecified)", "values": [{"measurement": "EC50", "setting": "[2]", "value": "> 50 µM (active)"}]}]}
